Test results as given in article PMC12541891 (MicrobiologyOpen, 2025).
Values after ≈ are worked out from the molar mass of the structure shown. Each block holds one molecule with its values, some of them ahead of it.

Columns and labels:
C. krusei biofilm [1] = assay: Biofilm biomass by crystal violet (CV) assay; type: cell-based, Candida krusei
Procedure: (§1) For all bacterial strains considered in the study, biofilm was performed on a 96‐well plate inoculated with 200 µL of a bacterial suspension 1 × 10^6 CFU/mL and incubated 24 h at 37°C. After incubation for 4 h at 37°C, the medium was aspirated, non‐adherent cells were removed, washed with PBS and added with 200 µL of fresh medium. […] Similarly, to perform fungal biofilm, the different Candida species were grown for 24 h at 28°C on a multi‐wells plate, washed twice with sterile PBS, and then resuspended at 37°C in RPMI 1640 plus 10% FBS at 2.5 × 10^7 cells. After incubation for 3 h at 37°C in six‐well polystyrene plates, the medium was aspirated, non‐adherent cells were removed and washed with PBS.
(§2) To quantify bacterial and Candida biofilm biomass, CV, a dye able to color the biofilm matrix, was used. Firstly, after the removal of supernatant and washing with PBS, biofilm was fixed adding 100 µL of 99% methanol for 15 min. Then, methanol was rinsed off and the plates were air‐dried. Subsequently, 100 µL of a 0.1% of CV solution were added to wells and, after 20 min of contact, the plates were washed under running tap water. To dissolve the bounded CV, 150 µL of 33% of glacial acetic acid were added to wells. The absorbance was measured at 590 nm using an automatic microplate reader, Tecan Sunrise (Tecan Group Ltd., Männedorf, Switzerland).

C. glabrata biofilm [2] = assay: Biofilm metabolic activity by XTT-reduction assay; type: cell-based, Candida glabrata
Procedure: as §1
(§3) The biofilm metabolic activity was evaluated by XTT assay, that highpoints the activity through the reduction of the tetrazolium salt to formazan. After the removal of supernatant and washing with PBS, a solution of XTT‐menadione solution were added to wells. The XTT‐menadione was prepared dissolving XTT powder in prewarmed PBS (37°C) at 0.5 g/L. The solution was sterilized through a 0.22 μm pore size filter. Before each assay, the XTT solution was thawed and supplemented with menadione, a 10 mM stock dissolved in acetone to a final concentration 1 μM. Plates were incubated for 3 h at 37°C in the dark and then the absorbance was measured at 492 nm using the microplate reader, Tecan Sunrise.

C. albicans biofilm [3] = assay: Biofilm metabolic activity by XTT-reduction assay; type: cell-based, Candida albicans
Procedure: as §1, §3

C. glabrata biofilm [4] = assay: Biofilm biomass by crystal violet (CV) assay; type: cell-based, Candida glabrata
Procedure: as §1, §2

C. krusei biofilm [5] = assay: Biofilm metabolic activity by XTT-reduction assay; type: cell-based, Candida krusei
Procedure: as §1, §3

C. albicans biofilm [6] = assay: Biofilm biomass by crystal violet (CV) assay; type: cell-based, Candida albicans
Procedure: as §1, §2

E. coli biofilm [7] = assay: Biofilm biomass by crystal violet (CV) assay; type: cell-based, Escherichia coli
Procedure: as §1, §2

ESBL-Ec biofilm [8] = assay: Biofilm biomass by crystal violet (CV) assay; type: cell-based, Escherichia coli
Procedure: as §1, §2

E. coli biofilm [9] = assay: Biofilm metabolic activity by XTT-reduction assay; type: cell-based, Escherichia coli
Procedure: as §1, §3

ESBL-Ec biofilm [10] = assay: Biofilm metabolic activity by XTT-reduction assay; type: cell-based, Escherichia coli
Procedure: as §1, §3

MRSA biofilm [11] = assay: Biofilm biomass by crystal violet (CV) assay; type: cell-based, Staphylococcus aureus
Procedure: as §1, §2

MRSA biofilm [12] = assay: Biofilm metabolic activity by XTT-reduction assay; type: cell-based, Staphylococcus aureus
Procedure: as §1, §3

S. aureus biofilm [13] = assay: Biofilm metabolic activity by XTT-reduction assay; type: cell-based, Staphylococcus aureus
Procedure: as §1, §3

C. glabrata DSY562 = assay: MIC and MFC by microbroth dilution; type: cell-based, Candida glabrata; conditions: Nakaseomyces glabratus, DSY562, C. glabrata
Procedure: (§4) No substance was added, in one well, for growth control. A bacterial suspension of 1 × 10^8 CFU/mL was inoculated into all wells of the plate and incubated for 24 h at 37°C. […] The dilutions ranged from 4 to 2000 µg/mL for the substances. The inoculum size was about 2.5×10^3 cells/mL. The plates were incubated at 28°C for 24–48 h. The MIC was determined as the lowest substances' concentration where no visible bacterial or fungal growth was observed. […] Each antimicrobial assay was performed in triplicate.

C. krusei 44956 = assay: MIC and MFC by microbroth dilution; type: cell-based, Candida krusei; conditions: Pichia kudriavzevii, 44956, C. krusei
Procedure: as §4

C. tropicalis biofilm [14] = assay: Biofilm metabolic activity by XTT-reduction assay; type: cell-based, Candida tropicalis; conditions: biofilm in formation (3 h), substance alone at MIC
Procedure: as §1, §3

S. aureus biofilm [15] = assay: Biofilm biomass by crystal violet (CV) assay; type: cell-based, Staphylococcus aureus
Procedure: as §1, §2

[16] = test system: Escherichia coli MG1655 (ATCC 700926); assay: MIC and MBC by microbroth dilution; type: cell-based
Procedure: as §4

[17] = test system: Staphylococcus aureus ATCC 6538; assay: MIC and MBC by microbroth dilution; type: cell-based
Procedure: as §4

[18] = test system: methicillin resistant S. aureus (MRSA); assay: MIC and MBC by microbroth dilution; type: cell-based; conditions: Staphylococcus aureus
Procedure: as §4

[19] = test system: Extended Spectrum-Beta-Lactamase producing E. coli (ESBL-Ec); assay: MIC and MBC by microbroth dilution; type: cell-based; conditions: Escherichia coli, ESBL-Ec
Procedure: as §4

C. tropicalis biofilm [20] = assay: Biofilm biomass by crystal violet (CV) assay; type: cell-based, Candida tropicalis; conditions: substance alone at MIC
Procedure: as §1, §2

C. tropicalis 45,615 = assay: MIC and MFC by microbroth dilution; type: cell-based; conditions: Candida tropicalis, C. tropicalis
Procedure: as §4

C. albicans AIDS 68 = assay: MIC and MFC by microbroth dilution; type: cell-based; conditions: Candida albicans, AIDS68, C. albicans
Procedure: as §4

[21] = preformed biofilm, sub-MIC concentrations alone or in combination (Table 5)
[22] = biofilm in formation, sub-MIC concentrations alone or in combination (Table 5)
[23] = planktonic, 24-48 h, read-out: MIC
[24] = biofilm in formation (3 h), substance alone at MIC
[25] = preformed biofilm (24 h), substance alone at MIC
[26] = biofilm in formation (4 h), substance alone at MIC
[27] = biofilm in formation, sub-MIC concentrations alone or in combination (Table 5), listed as T
[28] = biofilm in formation (3 h), substance alone at MIC, listed as thymol
[29] = planktonic, 24 h, read-out: MIC

SMILES: OC(Cn1cncn1)(Cn1cncn1)c1ccc(F)cc1F [FLC, fluconazole, reference compound]
Percentage of biomass reduction (C. krusei biofilm [1]; [21]): 14% | Percentage of metabolic activity reduction (C. glabrata biofilm [2]; [22]): 27.1% | Percentage of metabolic activity reduction (C. glabrata biofilm [2]; [21]): 5.3% | Percentage of metabolic activity reduction (C. albicans biofilm [3]; [22]): 25.1% | Percentage of metabolic activity reduction (C. albicans biofilm [3]; [21]): 6.9% | Percentage of biomass reduction (C. glabrata biofilm [4]; [22]): 20.5% | Percentage of metabolic activity reduction (C. krusei biofilm [5]; [21]): 14% | Percentage of biomass reduction (C. albicans biofilm [6]; [22]): 30.6%

SMILES: CNC(C)C1CCC(N)C(OC2C(N)CC(N)C(OC3OCC(C)(O)C(NC)C3O)C2O)O1 (stereo not shown) [GM, gentamicin, reference compound]
Percentage of biomass reduction (E. coli biofilm [7]; [22]): 48% | Percentage of biomass reduction (E. coli biofilm [7]; [21]): 59.8% | Percentage of biomass reduction (ESBL-Ec biofilm [8]; [22]): 66.7% | Percentage of biomass reduction (ESBL-Ec biofilm [8]; [21]): 48.9% | Percentage of metabolic activity reduction (E. coli biofilm [9]; [22]): 35.9% | Percentage of metabolic activity reduction (E. coli biofilm [9]; [21]): 48.3% | Percentage of metabolic activity reduction (ESBL-Ec biofilm [10]; [22]): 50% | Percentage of biomass reduction (MRSA biofilm [11]; [22]): 57.6% | Percentage of biomass reduction (MRSA biofilm [11]; [21]): 33.6% | Percentage of metabolic activity reduction (MRSA biofilm [12]; [22]): 22.3% | Percentage of metabolic activity reduction (MRSA biofilm [12]; [21]): 16% | Percentage of metabolic activity reduction (S. aureus biofilm [13]; [21]): 15.2%

MIC (C. glabrata DSY562; [23]): ≥ 2000 µg/mL | MIC (C. krusei 44956; [23]): ≥ 2000 µg/mL | MIC ([16]; E. coli MG1655, planktonic, 24 h, read-out: MIC): 125 µg/mL (≈ 832 µM) | MIC ([17]; ATCC6538, S. aureus 6538, planktonic, 24 h, read-out: MIC): 250 µg/mL (≈ 1660 µM) | MIC [18, 29]: 250 µg/mL (≈ 1660 µM) | MIC [19, 29]: 125 µg/mL (≈ 832 µM) | MIC (C. tropicalis 45,615; [23]): ≥ 2000 µg/mL | MIC (C. albicans AIDS 68; [23]): ≥ 2000 µg/mL
SMILES: Cc1ccc(C(C)C)c(O)c1 [Thymol, 2‐isopropyl‐5‐methylphenol]
MFC (C. glabrata DSY562; read-out: MFC): ≥ 2000 µg/mL | MFC (C. krusei 44956; read-out: MFC): ≥ 2000 µg/mL | Percentage of biomass reduction (C. krusei biofilm [1]; [24]): no effect | Percentage of biomass reduction (C. krusei biofilm [1]; [25]): 18.5% | Percentage of metabolic activity reduction (C. glabrata biofilm [2]; [24]): 90% | Percentage of metabolic activity reduction (C. glabrata biofilm [2]; [25]): 9.6% | Percentage of metabolic activity reduction (C. glabrata biofilm [2]; [21]): 11.4% | Percentage of biomass reduction (E. coli biofilm [7]; [26]): 87.7% | Percentage of biomass reduction (E. coli biofilm [7]; [25]): 87% | Percentage of biomass reduction (ESBL-Ec biofilm [8]; [26]): 70% | Percentage of biomass reduction (ESBL-Ec biofilm [8]; [25]): 69.8% | Percentage of metabolic activity reduction (E. coli biofilm [9]; [26]): 84.8% | Percentage of metabolic activity reduction (E. coli biofilm [9]; [22]): ~50% | Percentage of metabolic activity reduction (E. coli biofilm [9]; [27]): 51.3% | Percentage of metabolic activity reduction (E. coli biofilm [9]; [25]): 74% | Percentage of metabolic activity reduction (E. coli biofilm [9]; [21]): 22.4% | Percentage of metabolic activity reduction (ESBL-Ec biofilm [10]; [26]): 77.9% | Percentage of metabolic activity reduction (ESBL-Ec biofilm [10]; [22]): ~50% | Percentage of metabolic activity reduction (ESBL-Ec biofilm [10]; [27]): 52% | Percentage of metabolic activity reduction (ESBL-Ec biofilm [10]; [25]): 74% | Percentage of metabolic activity reduction (C. tropicalis biofilm [14]): 53.9% | Percentage of metabolic activity reduction (C. albicans biofilm [3]; [24]): 85.1% | Percentage of metabolic activity reduction (C. albicans biofilm [3]; [22]): about 22% | Percentage of metabolic activity reduction (C. albicans biofilm [3]; [27]): 24.0% | Percentage of metabolic activity reduction (C. albicans biofilm [3]; [25]): 84.1% | Percentage of metabolic activity reduction (C. albicans biofilm [3]; preformed biofilm (24 h), substance alone at MIC, listed as thymol): 80% | Percentage of metabolic activity reduction (C. albicans biofilm [3]; [21]): 9.0% | Percentage of biomass reduction (MRSA biofilm [11]; [26]): 90% | Percentage of biomass reduction (MRSA biofilm [11]; [27]): 22.6% | Percentage of biomass reduction (MRSA biofilm [11]; [25]): 87% | Percentage of biomass reduction (MRSA biofilm [11]; [21]): 31.3% | Percentage of biomass reduction (S. aureus biofilm [15]; [26]): 79.7% | Percentage of biomass reduction (S. aureus biofilm [15]; [27]): 11.6% | Percentage of biomass reduction (S. aureus biofilm [15]; [25]): 82.7% | Percentage of biomass reduction (C. glabrata biofilm [4]; [24]): 52.1% | Percentage of biomass reduction (C. glabrata biofilm [4]; [28]): about 40% | Percentage of biomass reduction (C. glabrata biofilm [4]; [25]): 17.5% | MBC ([16]; E. coli MG1655, read-out: MBC): 250 µg/mL (≈ 1660 µM) | MBC ([17]; ATCC6538, S. aureus 6538, read-out: MBC): 250 µg/mL (≈ 1660 µM) | MBC ([18]; read-out: MBC): 250 µg/mL (≈ 1660 µM) | MBC ([19]; read-out: MBC): 250 µg/mL (≈ 1660 µM) | Percentage of biomass reduction (C. tropicalis biofilm [20]; biofilm in formation (3 h)): 37.1% | Percentage of biomass reduction (C. tropicalis biofilm [20]; biofilm in formation (3 h), listed as thymol): about 40% | Percentage of biomass reduction (C. tropicalis biofilm [20]; preformed biofilm (24 h)): 11.8% | Percentage of metabolic activity reduction (MRSA biofilm [12]; [26]): 96.3% | Percentage of metabolic activity reduction (MRSA biofilm [12]; [25]): 97.5% | Percentage of metabolic activity reduction (MRSA biofilm [12]; [21]): 17.2% | Percentage of metabolic activity reduction (S. aureus biofilm [13]; [26]): 90% | Percentage of metabolic activity reduction (S. aureus biofilm [13]; [27]): 12% | Percentage of metabolic activity reduction (S. aureus biofilm [13]; [25]): 90% | Percentage of metabolic activity reduction (C. krusei biofilm [5]; [24]): 71.7% | Percentage of metabolic activity reduction (C. krusei biofilm [5]; [22]): 25% | Percentage of metabolic activity reduction (C. krusei biofilm [5]; [25]): 47% | Percentage of metabolic activity reduction (C. krusei biofilm [5]; [21]): 25.1% | Percentage of biomass reduction (C. albicans biofilm [6]; [24]): 44.6% | Percentage of biomass reduction (C. albicans biofilm [6]; [28]): about 40% | Percentage of biomass reduction (C. albicans biofilm [6]; [22]): about 22% | Percentage of biomass reduction (C. albicans biofilm [6]; [27]): 22.5% | MFC (C. tropicalis 45,615; read-out: MFC): ≥ 2000 µg/mL | MFC (C. albicans AIDS 68; read-out: MFC): ≥ 2000 µg/mL
